The values below come from patent US11814379B2, “Cyano quinoline amide compounds as HER2 inhibitors and methods of use” (DANA-FARBER CANCER INSTITUTE, INC., priority 2018, dated 2023).

A value given as a limit tells only on which side of the number the result lay.

The subject of experiment [1] is HER2 mutations. Particulars: Phase I and II clinical data; cited from earlier work.
For experiment [2], the target named is T1, HER2 insYVMA (A775_G776insYVMA) (Homo sapiens, UniProt P04626, INS775YVMA).
T1 construct: no response in all 13 patients with HER2 insYVMA (A775_G776insYVMA); host or cells: patients' tumours
The note with it: afatinib as a single agent; dacomitinib phase II trial, 13 patients; cited from earlier work.

For experiment [3], the system named is DFCI429 (Her2 amplification). Put plainly: Antiproliferative activities in lung cancer cells, DFCI429. It counts as cell-based. Here is the method: (§1) Cell growth and growth inhibition were evaluated by […] (MTS) assay. A total of 3,000-4,000 cells were plated per well in 96-well plates and treated with each drug (at a dose range from 1 nM to 10 μM) for 3 days. Each experimental point was conducted in six replicates and all tests were repeated more than three times. IC50 data was obtained from a nonlinear regression model with sigmoidal dose response using GraphPad Prism (GraphPad Software, Inc.).

For experiment [4], the system named is H1781 (HER2 InsVC). The experiment can be described thus: Antiproliferative activities in lung cancer cells, H1781. The class given is cell-based. Particulars: NCI-H1781. As to the method: as §1
All ERBB insertion mutations were generated by using the Quikchange II XL Site-Directed Mutagenesis Kit (Agilent Tech) according to the manufacturer's protocol. The insertion mutations and wildtype form of human EGFR and HER2 were transduced into Ba/F3 cells by retroviral infection followed by treatment of puromycin and withdrawal of interleukin-3 for selection. Transformed Ba/F3 cells and the NSCLC cell line H1781 (with HER2 insertion VC) were cultured in Roswell Park Memorial Institute-1640 medium (Gibco) with 10% fetal bovine serum and 1% penicillin/streptomycin (Gibco). Wild-type EGFR Ba/F3 cells were cultured in the same media supplemented with EGF (10 ng/ml).
(§2) Cell growth inhibition was assessed by MTS assay for Ba/F3 and H1781 cells. A total of 3,000-4,000 cells were seeded for per well in 96-well plates, and were exposed to representative compounds of the application (1 nM to 10 μM) for 72 hours. All experimental points included 6 wells. […] The growth curves were fitted using a nonlinear regression model with sigmoidal dose response.
(§3) Activities of representative compounds of the present application in inhibiting HER2 were tested by MTS assay (for Ba/F3 cells and H1781 cells). For each assay, a total of 3,000-4,000 cells were seeded per well in 96-well plates and were exposed to indicated compounds with a concentration of […] for 72 hours.

The test system of experiment [5] is H1819 (Her2 amplification). Put plainly: Antiproliferative activities in lung cancer cells, H1819. The class given is cell-based. Particulars: NCI-H1819. Here is the method: as §1
Experiment [6] has as its system Calu-3 (Her2 amplification). The experiment can be described thus: Antiproliferative activities in lung cancer cells, Calu-3. The class given is cell-based. Particulars: Homo sapiens. Here is the method: as §1
Experiment [7] has as its target Ba/F3 cells WT EGFR (Homo sapiens, UniProt P00533). The experiment can be described thus: Antiproliferative activities (MTS assay), Ba/F3 cells WT EGFR. The class given is cell-based. The note with it: 72 hours. As to the method:
as §1
(§4) All ERBB insertion mutations were generated by using the Quikchange II XL Site-Directed Mutagenesis Kit (Agilent Tech) according to the manufacturer's protocol. The insertion mutations and wildtype form of human EGFR and HER2 were transduced into Ba/F3 cells by retroviral infection followed by treatment of puromycin and withdrawal of interleukin-3 for selection. […] Wild-type EGFR Ba/F3 cells were cultured in the same media supplemented with EGF (10 ng/ml).
as §2, §3
(In general: Tetrazolium assays rely on reduction of a dye to a coloured formazan, in cell work by metabolically active cells.)

For experiment [8], the target named is Ba/F3 cells HER2 InsVC (Homo sapiens, UniProt P04626, DELINS776-776VC, cells depend on it). Put plainly: Antiproliferative activities (MTS assay), Ba/F3 cells HER2 InsVC. The class given is cell-based. The note with it: 72 hours. As to the method:
as §1, §4, §2, §3

For experiment [9], the system named is Ba/F3 cells WT HER2. Put plainly: Antiproliferative activities (MTS assay), Ba/F3 cells WT HER2. The class given is cell-based, human. Particulars: for EGFR EC50/HER2 EC50: Ba/F3 cells, ratio WT EGFR to WT HER2. As to the method:
as §1, §4, §2, §3

The target in experiment [10] is T2, Ba/F3 cells WT HER2 (Homo sapiens, UniProt P04626).
T2 construct: Antiproliferative Activities (Ba/F3 cells) WT HER2; other: Ba/F3 cells, 72 hours, MTS
The description is as above. It counts as cell-based. The note with it: Ba/F3 cells, 72 hours, MTS. Here is the method: as §1, §4, §2, §3

Experiment [11] concerns the target Ba/F3 cells HER2 InsWLV (Homo sapiens, UniProt P04626, DELINS774-774WLV, cells depend on it). The experiment can be described thus: Antiproliferative activities (MTS assay), Ba/F3 cells HER2 InsWLV. It counts as cell-based. Particulars: 72 hours. As to the method: as §1, §4, §2, §3
In experiment [12] the target is WT HER2 (Homo sapiens, UniProt P04626). The experiment can be described thus: Biochemical activities, WT HER2.
In experiment [13] the target is Ba/F3 cells HER2 InsYVMA (Homo sapiens, UniProt P04626, DUP772-775, cells depend on it). The experiment can be described thus: Antiproliferative activities (MTS assay), Ba/F3 cells HER2 InsYVMA. Particulars: 72 hours. The class given is cell-based. As to the method: as §1, §4, §2, §3
Experiment [14] addresses WT EGFR (Homo sapiens, UniProt P00533). Put plainly: Biochemical activities, WT EGFR.
Experiment [15] deals with Ba/F3 cells HER2 InsGSP (Homo sapiens, UniProt P04626, DUP778-780, cells depend on it). The experiment can be described thus: Antiproliferative activities (MTS assay), Ba/F3 cells HER2 InsGSP. The class given is cell-based. The note with it: 72 hours. As to the method:
as §1, §4, §2, §3

Sequence of WT EGFR (P00533 25-1210): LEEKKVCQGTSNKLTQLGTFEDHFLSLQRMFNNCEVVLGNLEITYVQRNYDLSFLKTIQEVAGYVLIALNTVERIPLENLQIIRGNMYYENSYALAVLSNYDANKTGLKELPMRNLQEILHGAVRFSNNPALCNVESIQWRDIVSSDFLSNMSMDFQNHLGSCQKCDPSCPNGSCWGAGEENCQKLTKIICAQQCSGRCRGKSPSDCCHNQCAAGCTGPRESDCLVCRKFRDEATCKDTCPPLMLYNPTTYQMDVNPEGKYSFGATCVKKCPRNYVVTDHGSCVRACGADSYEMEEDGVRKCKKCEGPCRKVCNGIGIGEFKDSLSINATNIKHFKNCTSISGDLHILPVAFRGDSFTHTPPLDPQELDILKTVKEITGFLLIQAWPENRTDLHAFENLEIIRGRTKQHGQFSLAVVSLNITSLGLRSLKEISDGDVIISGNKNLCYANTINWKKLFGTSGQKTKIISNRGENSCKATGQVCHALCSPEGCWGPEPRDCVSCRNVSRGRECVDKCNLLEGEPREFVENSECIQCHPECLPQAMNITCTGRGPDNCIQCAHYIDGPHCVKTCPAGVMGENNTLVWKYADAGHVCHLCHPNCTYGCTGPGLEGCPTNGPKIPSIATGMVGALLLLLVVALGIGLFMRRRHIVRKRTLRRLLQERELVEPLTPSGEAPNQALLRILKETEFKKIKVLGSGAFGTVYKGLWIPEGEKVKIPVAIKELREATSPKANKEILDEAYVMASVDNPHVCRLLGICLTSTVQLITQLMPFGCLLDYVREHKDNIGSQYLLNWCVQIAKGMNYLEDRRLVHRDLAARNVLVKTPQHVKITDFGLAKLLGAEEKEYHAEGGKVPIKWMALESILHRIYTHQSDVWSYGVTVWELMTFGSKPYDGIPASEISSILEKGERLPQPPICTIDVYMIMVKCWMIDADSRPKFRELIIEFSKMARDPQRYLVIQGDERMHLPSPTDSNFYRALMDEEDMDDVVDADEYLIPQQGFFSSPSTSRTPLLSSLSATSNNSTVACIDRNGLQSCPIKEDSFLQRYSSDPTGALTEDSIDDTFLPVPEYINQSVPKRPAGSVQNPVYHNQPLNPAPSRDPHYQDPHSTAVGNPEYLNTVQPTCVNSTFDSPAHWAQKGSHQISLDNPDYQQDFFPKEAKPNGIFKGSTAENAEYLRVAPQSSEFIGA
Sequence of Ba/F3 cells WT EGFR (P00533 whole entry, change not shown): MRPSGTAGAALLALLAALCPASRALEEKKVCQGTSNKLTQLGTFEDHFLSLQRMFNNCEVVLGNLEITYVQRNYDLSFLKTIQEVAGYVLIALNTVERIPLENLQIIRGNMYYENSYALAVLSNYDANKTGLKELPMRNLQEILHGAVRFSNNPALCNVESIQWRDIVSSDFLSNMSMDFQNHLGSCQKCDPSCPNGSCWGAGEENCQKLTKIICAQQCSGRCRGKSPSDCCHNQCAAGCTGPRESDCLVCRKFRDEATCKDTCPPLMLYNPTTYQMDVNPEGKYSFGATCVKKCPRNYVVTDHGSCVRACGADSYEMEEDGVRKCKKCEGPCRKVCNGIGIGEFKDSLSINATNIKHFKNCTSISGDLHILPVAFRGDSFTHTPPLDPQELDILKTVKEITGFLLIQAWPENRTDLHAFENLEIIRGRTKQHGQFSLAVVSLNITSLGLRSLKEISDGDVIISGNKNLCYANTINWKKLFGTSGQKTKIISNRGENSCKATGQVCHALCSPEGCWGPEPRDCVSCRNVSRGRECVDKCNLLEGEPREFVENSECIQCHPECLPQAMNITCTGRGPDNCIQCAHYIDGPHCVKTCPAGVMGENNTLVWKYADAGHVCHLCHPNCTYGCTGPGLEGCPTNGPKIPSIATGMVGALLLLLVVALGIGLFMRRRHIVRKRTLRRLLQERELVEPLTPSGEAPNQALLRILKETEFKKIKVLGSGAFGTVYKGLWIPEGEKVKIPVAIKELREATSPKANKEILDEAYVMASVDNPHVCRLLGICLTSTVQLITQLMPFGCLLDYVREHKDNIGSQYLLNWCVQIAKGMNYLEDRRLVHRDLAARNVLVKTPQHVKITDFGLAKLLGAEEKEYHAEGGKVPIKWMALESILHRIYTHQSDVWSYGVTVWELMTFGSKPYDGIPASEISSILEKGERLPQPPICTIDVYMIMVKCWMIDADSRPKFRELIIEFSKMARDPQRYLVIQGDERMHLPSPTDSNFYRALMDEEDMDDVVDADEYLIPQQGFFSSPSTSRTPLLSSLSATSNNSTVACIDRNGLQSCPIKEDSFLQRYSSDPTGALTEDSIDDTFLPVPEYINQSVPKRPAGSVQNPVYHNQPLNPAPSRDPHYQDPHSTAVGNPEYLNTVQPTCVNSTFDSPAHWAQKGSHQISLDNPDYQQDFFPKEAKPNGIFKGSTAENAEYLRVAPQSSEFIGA

`CN(C)C/C=C/C(=O)Nc1cc2c(Nc3ccc(F)c(Cl)c3)ncnc2cc1O[C@H]1CCOC1` [Afatinib]: in [1], the “response to treatment of patients harboring HER2 mutations” value was “partially responded”. The “response of patients with HER2 insYVMA” value in [2] is listed as “durable responses”. Besides, the EC50 in experiment [3] was 100 to 250 nM; in experiment [4] it was 100 to 250 nM; in [5], below 100 nM; in [6] it was 100 to 250 nM.

Consider `CCOc1cc2ncc(C#N)c(Nc3ccc(Oc4ccn5ncnc5c4)c(C)c3)c2cc1NC(=O)/C=C/CN(C)C` [Compound 1, (E)-N-(4-((4-([1,2,4]triazolo[1,5-a]pyridin-7-yloxy)-3-methylphenyl)amino)-3-cyano-7-ethoxyquinolin-6-yl)-4-(dimethylamino)but-2-enamide], for which the EC50 in experiment [7] was 250 to 500 nM; in experiment [8] it was below 100 nM; in experiment [10], below 100 nM; in [11] it was below 100 nM; in experiment [12], below 100 nM; in experiment [3], 100 to 250 nM. The EC50 was below 100 nM in experiment [13]; 100 to 250 nM in experiment [14]; 100 to 250 nM in experiment [4]; below 100 nM in [15]; below 100 nM in experiment [5]; below 100 nM in experiment [6]. Besides, in experiment [9], the “EGFR EC50/HER2 EC50” value is 32. Moreover, the “inhibition of HER2 and its mutant over EGFR” value in experiment [9] (FIG. 4 bar graph) is on record as “selective inhibition”.

As to `CCOc1cc2ncc(C#N)c(Nc3ccc(Oc4ccn5ncnc5c4)c(F)c3)c2cc1NC(=O)/C=C/CN(C)C` [Compound 2], the EC50 in experiment [7] was above 500 nM; in [8], 250 to 500 nM; in experiment [10] it was below 100 nM; in experiment [11], 100 to 250 nM; in experiment [12], below 100 nM; in experiment [13] it was below 100 nM. Further, the EC50 is 100 to 250 nM in [14] and below 100 nM in experiment [15]. Also, the “EGFR EC50/HER2 EC50” value in experiment [9] is on record as 222.

Take `CCOc1cc2ncc(C#N)c(Nc3ccc(Oc4ccn5ncnc5c4)c(Cl)c3)c2cc1NC(=O)/C=C/CN(C)C` [Compound 3]: the EC50 in experiment [7] is 250 to 500 nM; in experiment [8], below 100 nM; in [10], below 100 nM; in experiment [11] it was below 100 nM; in experiment [13] it was below 100 nM; in experiment [15] it was below 100 nM. Moreover, the “EGFR EC50/HER2 EC50” value in experiment [9] is 87.

Turning to `CCOc1cc2ncc(C#N)c(Nc3ccc(Oc4ccn5ccnc5c4)c(C)c3)c2cc1NC(=O)/C=C/CN(C)C` [Compound 4], the EC50 in [7] was above 500 nM; in experiment [8], below 100 nM; in experiment [10] it was below 100 nM; in experiment [11], 100 to 250 nM; in experiment [13], below 100 nM; in [15], below 100 nM. In addition, the “EGFR EC50/HER2 EC50” value in experiment [9] amounted to 49.

With `CCOc1cc2ncc(C#N)c(Nc3ccc(Oc4ccn5nccc5c4)c(C)c3)c2cc1NC(=O)/C=C/CN(C)C` [Compound 5], the EC50 in experiment [7] was 100 to 250 nM; in [8], below 100 nM; in [10], below 100 nM; in [11], 100 to 250 nM; in experiment [13], below 100 nM; in [15], below 100 nM. In addition, the “EGFR EC50/HER2 EC50” value in experiment [9] worked out at 6.

Turning to `CCOc1cc2ncc(C#N)c(Nc3ccc(Oc4ccc5ccn(C)c5c4)c(C)c3)c2cc1NC(=O)/C=C/CN(C)C` [Compound 6], the 50% effective concentration (EC50) in experiment [7] was above 500 nM; in [8], below 100 nM; in experiment [10], below 100 nM; in experiment [11] it was 100 to 250 nM; in experiment [13] it was below 100 nM; in [15] it was below 100 nM. Moreover, the “EGFR EC50/HER2 EC50” value in [9] is given as 178.

Consider `Cc1cc(Nc2ncnc3ccc(NC4=NC(C)(C)CO4)cc23)ccc1Oc1ccn2ncnc2c1` [Irbinitinib, reference compound], for which the EC50 is above 500 nM in experiment [7]; above 500 nM in experiment [8]; 250 to 500 nM in experiment [10]; 250 to 500 nM in experiment [11]; below 100 nM in [12]; at least 500 nM in experiment [3]. Also, the EC50 is 100 to 250 nM in experiment [13]; 250 to 500 nM in [14]; at least 500 nM in experiment [4]; 100 to 250 nM in [15]; 100 to 250 nM in experiment [5]; at least 500 nM in experiment [6]. Besides, the “EGFR EC50/HER2 EC50” value in experiment [9] is on record as 18.

Take `COc1cc2ncnc(Nc3ccc(F)c(Cl)c3)c2cc1NC(=O)/C=C/CN1CCCCC1` [dacomitinib]: in experiment [1], the “response to treatment of patients harboring HER2 mutations” value is reported as “partially responded”. Also, the “response of patients with HER2 insYVMA” value in [2] is given as “no response”.

For orientation: EC50 means the concentration needed to bring the measured effect to its halfway point. A low value points to higher potency in that assay.
